Test results from US8217031B2, “Heteroaryl derivatives” (Nippon Shinyaku Co., Ltd., priority 2007, dated 2012).
pKi: −log10 of the molar value. Counter-ions that a name gives are not always drawn.

Assays:
[1] = target: T1, [3H]serotonin re-uptake in synaptosome (Rattus norvegicus, UniProt P31652); assay: Inhibition of serotonin reuptake in rat cerebral cortex synaptosome; format: biochemical; settings: Ki calculated from IC50 and Kd, read-out: Serotonin Reuptake Inhibiting Activity, Ki value
T1 construct: to give a synaptosome solution; from tissue; host or cells: rat cerebral cortex synaptosomes (male SD rats)
T1 sequence (P31652 whole entry): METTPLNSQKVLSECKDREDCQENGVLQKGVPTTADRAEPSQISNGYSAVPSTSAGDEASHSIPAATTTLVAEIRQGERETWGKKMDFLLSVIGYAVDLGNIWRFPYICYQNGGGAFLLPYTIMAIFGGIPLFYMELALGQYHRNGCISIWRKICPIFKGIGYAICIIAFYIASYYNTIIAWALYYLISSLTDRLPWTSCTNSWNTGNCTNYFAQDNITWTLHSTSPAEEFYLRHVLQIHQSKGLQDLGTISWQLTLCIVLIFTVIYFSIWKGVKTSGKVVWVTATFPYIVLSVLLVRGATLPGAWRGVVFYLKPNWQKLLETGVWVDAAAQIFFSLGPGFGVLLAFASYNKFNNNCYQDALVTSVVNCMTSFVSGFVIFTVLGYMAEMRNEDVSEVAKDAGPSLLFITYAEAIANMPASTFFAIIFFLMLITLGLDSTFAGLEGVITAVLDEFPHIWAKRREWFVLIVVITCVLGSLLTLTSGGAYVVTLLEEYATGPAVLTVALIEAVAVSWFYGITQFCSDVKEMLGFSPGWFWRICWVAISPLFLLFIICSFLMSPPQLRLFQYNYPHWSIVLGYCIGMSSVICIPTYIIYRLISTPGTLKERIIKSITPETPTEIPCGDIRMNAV
Protocol: (§1) Experiments for Inhibition of Serotonin Reuptake and Experiments for Inhibition of Norepinephrine Reuptake
(§2) Cerebral cortex of male SD rats (JAPAN SLC Inc.), over six weeks of age was excised and a 0.32M sucrose solution was added thereto in an amount of 10 mL per gram of the cerebral cortex followed by homogenizing. The homogenized solution was centrifuged, the supernatant thereof was further centrifuged at high speed and, to the resulting pellets, a PSS solution (pH 7.4; comprising 150 mM of NaCl, 4 mM of KCl, 1 mM of MgCl2, 2.5 mM of HEPES, 0.9 mg/mL of glucose, 0.176 mg/mL of ascorbic acid and 1 mM of pargylin) was added in an amount of 10 mL per gram of the pellets to give a synaptosome solution. A compound to be tested (100 μL) was added to 100 μL of the synaptosome solution and 700 μL of a 50 mM Tris buffer (pH 7.4; trihydroxylaminomethane) followed by subjecting to pre-incubation at 37° C. for 5 minutes. After the pre-incubation, 100 μL of [^3H]serotonin or [^3H]norepinephrine diluted to 10 nM and 20 nM, respectively, with a Tris buffer was added thereto followed by incubating at 37° C. for 5 minutes.
(§3) Synaptosome was recovered on a GF/B filter using a cell harvester and further washed three times using a washing solution (50 mM Tris buffer; pH 7.4; 4° C.). The filter was transferred to a vial, a scintillator was added thereto and the radiation activity was measured using a liquid scintillation counter.
(§4) Incidentally, the non-specific reaction was defined as the radiation activity under ice-cooling (4° C.) and the difference between the total radiation activity and the radiation activity under the non-specific reaction was adopted as the radiation activity specifically re-uptaken in the synaptosome. IC50 value was determined from the re-uptake inhibition rate in the presence of a test compound and, from IC50 value and the Kd value of [^3H]serotonin or [^3H]norepinephrine, Ki value of the test compound showing a re-uptake inhibiting activity of serotonin or norepinephrine, respectively, was calculated.

[2] = target: T2, [3H]norepinephrine re-uptake in synaptosome (Rattus norvegicus, UniProt Q9WTR4); assay: Inhibition of norepinephrine reuptake in rat cerebral cortex synaptosome; format: biochemical; settings: Ki calculated from IC50 and Kd, read-out: Norepinephrine Reuptake Inhibiting Activity, Ki value
T2 construct: to give a synaptosome solution; from tissue; host or cells: rat cerebral cortex synaptosomes (male SD rats)
T2 sequence (Q9WTR4 1-597): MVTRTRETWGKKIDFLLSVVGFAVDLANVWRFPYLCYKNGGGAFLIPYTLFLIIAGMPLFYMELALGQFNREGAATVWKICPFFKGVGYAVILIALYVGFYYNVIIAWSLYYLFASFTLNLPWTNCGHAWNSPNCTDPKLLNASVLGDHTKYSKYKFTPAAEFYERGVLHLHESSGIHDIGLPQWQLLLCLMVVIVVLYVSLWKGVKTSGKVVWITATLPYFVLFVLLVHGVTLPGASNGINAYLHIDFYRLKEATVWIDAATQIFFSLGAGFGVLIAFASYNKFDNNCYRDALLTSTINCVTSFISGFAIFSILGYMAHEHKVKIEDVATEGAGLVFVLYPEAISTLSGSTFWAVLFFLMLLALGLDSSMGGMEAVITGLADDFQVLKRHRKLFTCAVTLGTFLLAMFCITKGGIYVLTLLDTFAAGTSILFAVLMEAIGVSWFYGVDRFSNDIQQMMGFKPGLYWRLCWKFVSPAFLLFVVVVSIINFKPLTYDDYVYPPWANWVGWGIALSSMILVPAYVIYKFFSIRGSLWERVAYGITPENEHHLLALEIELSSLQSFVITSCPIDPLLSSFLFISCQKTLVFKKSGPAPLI
Protocol: as §1, §2, §3, §4

rats under anesthesia = assay: Measurement of urine leak point pressure in rats under anesthesia; format: in vivo, rat; settings: intravenous administration of not more than 10 mg/kg; female rats, urethane anesthesia, thoracic spine cut at T8 to T9
Protocol: Measurement of Urine Leak Point Pressure in Rats Under Anesthesia Under anesthesia with urethane (1.2 g/kg; subcutaneous administration), the thoracic spine of female rats of 8 to 12 weeks of age (Japan SLC Inc.) was cut at the level of T8 to T9 so that the micturition reflex was made to disappear, then the abdomen was subjected to a median incision to expose the bladder and then a cannula was inserted into the bladder. An appropriate amount (ca. 0.4 mL) of a physiological saline was previously infused into the bladder, both sides of the bladder were gradually pressed with two cotton buds and the inner pressure of the bladder when the physiological saline solution leaked out from the urethral orifice was measured as a pressure upon leakage of urine. The measurement was repeated several times until the measured values became stable and, after that, the test compound was intravenously administered and a pharmacological effect of the test compound was evaluated.

Row | Structure (SMILES) | pKi [1] | pKi [2] | leak point pressure (pressure upon leakage of urine) (rats under anesthesia)
1 | Cc1cc2c(o1)CN(C)CC2Oc1ccc(Cl)c(Cl)c1 (stereo not shown) [Example 57, 4-(3,4-Dichlorophenyloxy)-2,6-dimethyl-4,5,6,7-tetrahydrofuro[2,3-c]pyridine hydrochloride] | 7.85 | 6.61 | –
2 | Cc1cc2c(s1)CN(C)CCC2Oc1cccc2ccccc12.Cl (stereo not shown) [Example 102, 2,7-Dimethyl-4-(naphthalen-1-yloxy)-5,6,7,8-tetrahydro-4H-thieno[2,3-c]azepine hydrochloride] | 8.47 | 8.40 | raised the leak point pressure
3 | Cc1cc2c(s1)CN(C)CC2Oc1ccc(Br)c(Br)c1 (stereo not shown) [Example 98, 4-(3,4-Dibromophenyloxy)-2,6-dimethyl-4,5,6,7-tetrahydrothieno[2,3-c]pyridine hydrochloride] | 8.07 | 6.34 | –
4 | CN1CCC(Oc2cccc(Br)c2Cl)c2ccoc2C1 (stereo not shown) [Example 177, 4-(3-Bromo-2-chlorophenyloxy)-7-methyl-5,6,7,8-tetrahydro-4H-furo[2,3-c]azepine] | 8.51 | 7.56 | –
5 | CN1CCC(Oc2ccc(Cl)c(Cl)c2)c2sccc2C1 (stereo not shown) [Example 108, 8-(3,4-Dichlorophenyloxy)-5-methyl-5,6,7,8-tetrahydro-4H-thieno[3,2-c]azepine hydrochloride] | 8.77 | 7.19 | –
6 | CCN1Cc2sccc2C(Oc2ccc(Cl)c(Cl)c2)C1 (stereo not shown) [Example 24, 4-(3,4-Dichlorophenyloxy)-6-ethyl-4,5,6,7-tetrahydrothieno[2,3-c]pyridine hydrochloride] | 8.02 | 6.56 | –
7 | Cc1cc2c(o1)CN(C)CCC2Oc1cccc(Br)c1Cl (stereo not shown) [Example 200, 4-(3-Bromo-2-chlorophenyloxy)-2,7-dimethyl-5,6,7,8-tetrahydro-4H-furo[2,3-c]azepine] | 8.77 | 7.67 | –
8 | Cc1cc2c(o1)CN(C)CC2Oc1ccc(Cl)c2ccccc12 (stereo not shown) [Example 84, 4-(4-Chloronaphthalene-1-yloxy)-2,6-dimethyl-4,5,6,7-tetrahydrofuro[2,3-c]pyridine hydrochloride] | 8.10 | 6.68 | –
9 | Cc1cc2c(s1)CN(C)CCC2Oc1ccc(C(F)(F)F)cc1.Cl (stereo not shown) [Example 133, 2,7-dimethyl-4-[4-(trifluoromethyl)phenyloxy]-5,6,7,8-tetrahydro-4H-thieno[2,3-c]azepine hydrochloride] | – | – | raised the leak point pressure
10 | CN1Cc2ccsc2C(Oc2cccc3ccccc23)C1 (stereo not shown) [Example 2, 5-Methyl-7-(naphthalen-1-yloxy)-4,5,6,7-tetrahydrothieno[3,2-c]pyridine] | 7.57 | 6.32 | –
11 | CN1CCC(Oc2cccc3ccccc23)c2ccoc2C1 (stereo not shown) [Example 179, 7-Methyl-4-(naphthalen-1-yloxy)-5,6,7,8-tetrahydro-4H-furo[2,3-c]azepine hydrochloride] | 9.00 | 7.61 | –
12 | Cc1cc2c(o1)CN(C)CCC2Oc1cccc(Cl)c1Cl (stereo not shown) [Example 163, 4-(2,3-Dichlorophenyloxy)-2,7-dimethyl-5,6,7,8-tetrahydro-4H-furo[2,3-c]azepine] | 8.42 | 7.92 | –
13 | CN1CCC(Oc2cccc3ccccc23)c2occc2C1 (stereo not shown) [Example 157, 5-Methyl-8-(naphthalen-1-yloxy)-5,6,7,8-tetrahydro-4H-furo[3,2-c]azepine] | 8.17 | 7.24 | –
14 | CN1CCC(Oc2cccc(Br)c2Cl)c2ccoc2C1.Cl (single isomer, unassigned; (+)) [Example 398, (+)-4-(3-Bromo-2-chlorophenyloxy)-7-methyl-5,6,7,8-tetrahydro-4H-furo[2,3-c]azepine hydrochloride] | 8.77 | 8.25 | raised the leak point pressure
15 | CN1Cc2occc2C(Oc2ccc(Cl)c(Cl)c2)C1.Cl (stereo not shown) [Example 21, 4-(3,4-Dichlorophenyloxy)-6-methyl-4,5,6,7-tetrahydrofuro[2,3-c]pyridine hydrochloride] | – | – | raised the leak point pressure
16 | CN1CCC(Oc2cccc(Cl)c2Cl)c2occc2C1 (stereo not shown) [Example 168, 8-(2,3-Dichlorophenyloxy)-5-methyl-5,6,7,8-tetrahydro-4H-furo[3,2-c]azepine] | 8.18 | 7.62 | –
17 | Cc1cc2c(s1)CN(C)CCC2Oc1ccc(Br)c(Br)c1 (stereo not shown) [Example 135, 4-(3,4-Dibromophenyloxy)-2,7-dimethyl-5,6,7,8-tetrahydro-4H-thieno[2,3-c]azepine hydrochloride] | 8.27 | – | –
18 | CN1CCc2sccc2C(Oc2cccc3ccccc23)C1 (stereo not shown) [Example 109, 6-Methyl-4-(naphthalen-1-yloxy)-5,6,7,8-tetrahydro-4H-thieno[2,3-d]azepine hydrochloride] | 8.05 | 7.18 | –
19 | Cc1cc2c(o1)CN(C)CCC2Oc1cccc2ccccc12 (stereo not shown) [Example 140, 2,7-Dimethyl-4-(naphthalen-1-yloxy)-5,6,7,8-tetrahydro-4H-furo[2,3-c]azepine] | 8.39 | 8.08 | –
20 | CN1CCC(Oc2ccc(C(N)=O)cc2Cl)c2ccoc2C1 (stereo not shown) [Example 225, 4-(2-Chloro-4-carbamoylphenyloxy)-7-methyl-5,6,7,8-tetrahydro-4H-furo[2,3-c]azepine hydrochloride] | 7.74 | 7.93 | –
21 | Cc1cc2c(s1)CN(C)CCC2Oc1cccc(Cl)c1Cl (stereo not shown) [Example 148, 4-(2,3-Dichlorophenyloxy)-2,7-dimethyl-5,6,7,8-tetrahydro-4H-thieno[2,3-c]azepine hydrochloride] | 8.68 | 8.70 | –
22 | Cc1cc2c(o1)CN(C)CCC2Oc1cccc2ccccc12.Cl (single isomer, unassigned; (+)) [Example 401, (+)-2,7-Dimethyl-4-(naphthalen-1-yloxy)-5,6,7,8-tetrahydro-4H-furo[2,3-c]azepine hydrochloride] | 9.00 | 8.49 | raised the leak point pressure
23 | CN1CCC(Oc2cccc(Cl)c2Cl)c2ccoc2C1.Cl (single isomer, unassigned; (+)) [Example 400, (+)-4-(2,3-Dichlorophenyloxy)-7-methyl-5,6,7,8-tetrahydro-4H-furo[2,3-c]azepine hydrochloride] | 9.30 | 8.62 | raised the leak point pressure
24 | CN1CCC(Oc2cccc(Cl)c2Cl)c2ccsc2C1 (stereo not shown) [Example 149, 4-(2,3-Dichlorophenyloxy)-7-methyl-5,6,7,8-tetrahydro-4H-thieno[2,3-c]azepine hydrochloride] | 8.74 | 8.77 | –
25 | CN1CCC(Oc2ccc(Cl)c3ccccc23)c2sccc2C1 (stereo not shown) [Example 115, 8-(4-Chloronaphthalen-1-yloxy)-5-methyl-5,6,7,8-tetrahydro-4H-thieno[3,2-c]azepine hydrochloride] | 8.92 | 7.15 | –
26 | CN1Cc2occc2C(Oc2ccc(Br)c(Cl)c2)C1 (stereo not shown) [Example 66, 4-(4-Bromo-3-chlorophenyloxy)-6-methyl-4,5,6,7-tetrahydrofuro[2,3-c]pyridine hydrochloride] | 8.41 | 6.31 | –
27 | CN1CCC(Oc2cccc(Cl)c2Cl)c2ccoc2C1 (stereo not shown) [Example 213, 4-(2,3-Dichlorophenyloxy)-7-methyl-5,6,7,8-tetrahydro-4H-furo[2,3-c]azepine hydrochloride] | 9.05 | 8.39 | –
